Read-outs that look alike come from different tables or passages of the source. Each block holds one compound with its values, some of them ahead of it.
Assays:
Type in all cases: cell-based
NCI-H716 = test: Cell viability (CellTiterGlo, 72 h), Example 1; details: Homo sapiens, single agent
Source text: (§1) The colorectal cancer cell lines SW1417, COLO 205, LS411N, HT-29, RKO, OUMS-23, SW620, LoVo, SW480, SW837, COLO-678, LS123-NCI—H747, HCT-15, HCT116, DLD-1, T84, SW948, LS180, GP2d, HuTu 80, CW-2, SW48, NCI—H716, C2Bbe1, SNU—C1 and KM12 are obtained from the American Type Culture Collection (ATCC) and maintained in their respective culture medium as specified by the provider. These colorectal cancer cell lines have the following mutation status:
(§2) For assessment of combination effects, cells are seeded into 384-well plates at 500 cells/well and incubated overnight. The contents of the compound master plates are pre-diluted with 1:200 (1 μL compound solution to 200 μL cell […] culture medium containing 10% fetal clf serum) before transferring 5 μL of this pre-dilution to the cell plates containing 20 μL cell culture medium, to achieve the targeted final compound concentrations as well as a vehicle (DMSO) concentration of 0.09%.
(§3) Effects of single agents as well as their checkerboard combinations on cell viability are assessed after 72 hours of incubation at 37° C./5% CO2 by quantification of cellular ATP levels (CellTiterGlo, Promega) using 25 μL reagent/well and n=2 repliate plates per condition. The number/viability of cells at the time of compound addition was likewise assessed and used to estimate the population doubling time of the particular cell line. Single agent IC50s are calculated using standard four-parametric curve fitting (SLFit, model 205). Potential synergistic interactions between compound combinations are assessed using the Excess Inhibition 2D matrix according to the Loewe additivity model and are reported as Synergy Score. In addition, compound combinations are assessed by combination index analysis derived from isobologram graphs at 50% inhibition, and are reported as best combination index (CI), which corresponds to the lowest value on the isobologram. All synergy calculations are performed using CHALICE software (Lehár et al, Nat Biotechnol. (July 2009), 27(4): 69:66).

SW620 = test: Cell viability (CellTiterGlo, 72 h), Example 1; details: Homo sapiens, SW-620, single agent
Source text: as §1, §2, §3

SW480 = test: Cell viability (CellTiterGlo, 72 h), Example 1; details: Homo sapiens, single agent
Source text: as §1, §2, §3

C2BBe1 = test: Cell viability (CellTiterGlo, 72 h), Example 1; details: Homo sapiens, single agent
Source text: as §1, §2, §3

SW948 = test: Cell viability (CellTiterGlo, 72 h), Example 1; details: Homo sapiens, duplicate data points and dose response display some scatter, single agent
Source text: as §1, §2, §3

T84 = test: Cell viability (CellTiterGlo, 72 h), Example 1; details: Homo sapiens, duplicate data points and dose response display some scatter, single agent
Source text: as §1, §2, §3

LoVo = test: Cell viability (CellTiterGlo, 72 h), Example 1; details: Homo sapiens, single agent
Source text: as §1, §2, §3

SNU-C1 = test: Cell viability (CellTiterGlo, 72 h), Example 1; details: Homo sapiens, single agent
Source text: as §1, §2, §3

LS 180 = test: Cell viability (CellTiterGlo, 72 h), Example 1; details: Homo sapiens, LS180, single agent
Source text: as §1, §2, §3

SW837 = test: Cell viability (CellTiterGlo, 72 h), Example 1; details: Homo sapiens, single agent
Source text: as §1, §2, §3

COLO205 = test: Cell viability (CellTiterGlo, 72 h), Example 1; details: Homo sapiens, COLO 205, single agent
Source text: as §1, §2, §3

OUMS-23 = test: Cell viability (CellTiterGlo, 72 h), Example 1; details: single agent
Source text: as §1, §2, §3

HT-29 = test: Cell viability (CellTiterGlo, 72 h), Example 1; details: Homo sapiens, HT-29, 72 h
Source text: as §1, §2, §3

GP2d = test: Cell viability (CellTiterGlo, 72 h), Example 1; details: single agent
Source text: as §1, §2, §3

HCT 116 = test: Cell viability (CellTiterGlo, 72 h), Example 1; details: Homo sapiens, HCT-116, 72 h
Source text: as §1, §2, §3

DLD-1 = test: Cell viability (CellTiterGlo, 72 h), Example 1; details: Homo sapiens, single agent
Source text: as §1, §2, §3

HCT-15 = test: Cell viability (CellTiterGlo, 72 h), Example 1; details: Homo sapiens, single agent
Source text: as §1, §2, §3

LS411N = test: Cell viability (CellTiterGlo, 72 h), Example 1; details: Homo sapiens, LS-411N, single agent
Source text: as §1, §2, §3

CW-2 = test: Cell viability (CellTiterGlo, 72 h), Example 1; details: Homo sapiens, single agent
Source text: as §1, §2, §3

LS123 = test: Cell viability (CellTiterGlo, 72 h), Example 1; details: Homo sapiens, LS-123, single agent
Source text: as §1, §2, §3

RKO = test: Cell viability (CellTiterGlo, 72 h), Example 1; details: Homo sapiens, single agent
Source text: as §1, §2, §3

SW48 = test: Cell viability (CellTiterGlo, 72 h), Example 1; details: Homo sapiens, single agent
Source text: as §1, §2, §3

NCI-H747 = test: Cell viability (CellTiterGlo, 72 h), Example 1; details: Homo sapiens, single agent
Source text: as §1, §2, §3

SW1417 = test: Cell viability (CellTiterGlo, 72 h), Example 1; details: Homo sapiens, single agent
Source text: as §1, §2, §3

[1] = tested on: colorectal cancer cell lines; test: Cell viability (CellTiterGlo, 72 h), Example 1, whole panel; details: repeat experiments (*) excluded
Source text: as §1, §2
as §3, with “[…]). Interpretation of values for combination index and synergy score are provided below:” for “69:66).”
Pairwise multiple comparisons of the result groups are performed by one-way ANOVA (Neuman-Keuls method) using GraphPad Prism 5 (GraphPad Software Inc.). Results

IC50 (NCI-H716; read-out: Cmpd. A IC50): > 10800 nM
IC50 (SW620; read-out: Cmpd. A IC50): > 10800 nM
IC50 (SW480; read-out: Cmpd. A IC50): 9350 nM
IC50 (SW948; read-out: Cmpd. A IC50): 1190 nM
IC50 (LoVo; read-out: Cmpd. A IC50): 8660 nM
IC50 (SNU-C1; read-out: Cmpd. A IC50): 2430 nM
IC50 (SW837; read-out: Cmpd. A IC50): 7280 nM
IC50 (COLO205; read-out: Cmpd. A IC50): > 10800 nM
IC50 (HT-29; HT-29*, repeat experiment performed at end of study, single agent, read-out: Cmpd. A IC50): 4280 nM
IC50 (HT-29; HT-29, single agent, read-out: Cmpd. A IC50): 5200 nM
IC50 (HCT 116; HCT 116*, repeat experiment performed at end of study, single agent, read-out: Cmpd. A IC50): 8320 nM
IC50 (HCT 116; HCT 116, single agent, read-out: Cmpd. A IC50): 9420 nM
IC50 (DLD-1; read-out: Cmpd. A IC50): > 10800 nM
IC50 (HCT-15; read-out: Cmpd. A IC50): 6720 nM
IC50 (SW48; read-out: Cmpd. A IC50): 1410 nM
IC50 (NCI-H747; read-out: Cmpd. A IC50): 6210 nM
IC50 (SW1417; read-out: Cmpd. A IC50): 7850 nM
IC50 ([1]; Mean over colorectal cell lines, read-out: Mean Cmpd. A IC50): 7510 nM
IC50 ([1]; Median over colorectal cell lines, read-out: Median Cmpd. A IC50): 8660 nM
SMILES: Cc1nc(NC(=O)N2CCC[C@H]2C(N)=O)sc1-c1ccnc(C(C)(C)C(F)(F)F)c1 [COMPOUND A, (S)-pyrrolidine-1,2-dicarboxylic acid 2-amide 1-({4-methyl-5-[2-(2,2,2-trifluoro-1,1-dimethyl-ethyl)-pyridin-4-yl]-thiazol-2-yl}-amide)]
IC50 (C2BBe1; read-out: Cmpd. A IC50): 9200 nM
IC50 (T84; read-out: Cmpd. A IC50): 4160 nM
IC50 (LS 180; read-out: Cmpd. A IC50): 5080 nM
IC50 (OUMS-23; read-out: Cmpd. A IC50): > 10800 nM
IC50 (GP2d; read-out: Cmpd. A IC50): 698 nM
IC50 (LS411N; read-out: Cmpd. A IC50): 8670 nM
IC50 (CW-2; read-out: Cmpd. A IC50): > 10800 nM
IC50 (LS123; read-out: Cmpd. A IC50): 7250 nM
IC50 (RKO; read-out: Cmpd. A IC50): 6730 nM

IC50 (NCI-H716; read-out: Cmpd. B IC50): > 2700 nM
IC50 (SW620; read-out: Cmpd. B IC50): 26.9 nM
IC50 (SW480; read-out: Cmpd. B IC50): 2030 nM
IC50 (SW948; read-out: Cmpd. B IC50): 89.8 nM
IC50 (LoVo; read-out: Cmpd. B IC50): 148 nM
IC50 (SNU-C1; read-out: Cmpd. B IC50): 15.1 nM
IC50 (SW837; read-out: Cmpd. B IC50): 557 nM
IC50 (COLO205; read-out: Cmpd. B IC50): 34.4 nM
IC50 (HT-29; HT-29*, repeat experiment performed at end of study, single agent, read-out: Cmpd. B IC50): 66.5 nM
IC50 (HT-29; HT-29, single agent, read-out: Cmpd. B IC50): 84 nM
IC50 (HCT 116; HCT 116*, repeat experiment performed at end of study, single agent, read-out: Cmpd. B IC50): 735 nM
IC50 (HCT 116; HCT 116, single agent, read-out: Cmpd. B IC50): 881 nM
IC50 (DLD-1; read-out: Cmpd. B IC50): > 2700 nM
IC50 (HCT-15; read-out: Cmpd. B IC50): > 2700 nM
IC50 (SW48; read-out: Cmpd. B IC50): 78.4 nM
IC50 (NCI-H747; read-out: Cmpd. B IC50): 153 nM
IC50 (SW1417; read-out: Cmpd. B IC50): 53.9 nM
IC50 ([1]; Mean over colorectal cell lines, read-out: Mean Cmpd. B IC50): 1160 nM
IC50 ([1]; Median over colorectal cell lines, read-out: Median Cmpd. B IC50): 76 nM
SMILES: Cn1cnc2c(F)c(Nc3ccc(Br)cc3F)c(C(=O)NOCCO)cc21 [COMPOUND B, 6-(4-bromo-2-fluorophenylamino)-7-fluoro-3-methyl-3H-benzoimidazole-5-carboxylic acid (2-hydroxyethoxy)-amide]
IC50 (C2BBe1; read-out: Cmpd. B IC50): 1580 nM
IC50 (T84; read-out: Cmpd. B IC50): 12800 nM
IC50 (LS 180; read-out: Cmpd. B IC50): 143 nM
IC50 (OUMS-23; read-out: Cmpd. B IC50): > 2700 nM
IC50 (GP2d; read-out: Cmpd. B IC50): 756 nM
IC50 (LS411N; read-out: Cmpd. B IC50): 54.7 nM
IC50 (CW-2; read-out: Cmpd. B IC50): > 2700 nM
IC50 (LS123; read-out: Cmpd. B IC50): 2280 nM
IC50 (RKO; read-out: Cmpd. B IC50): > 2700 nM

— US9675595B2, “Synergistic combinations of PI3K- and MEK-inhibitors” (Novartis AG, priority 2011, dated 2017)
